Literature values, collected in patent publication US6653081B2, “Methods for monitoring antiretroviral therapy and guiding therapeutic decision in the treatment of HIV/AIDS” (ViroLogic, Inc., priority 2000, dated 2003).

Tested on: codon 181 mutant HIV-1
Conditions: cited from earlier work

SMILES	susceptibility / activity in the presence of the Y181C mutation
CCc1cc(CCc2nc3ccccc3o2)c(=O)[nH]c1C [L-696,229]	reduced susceptibility
CCc1cc(NCc2nc3c(Cl)ccc(Cl)c3o2)c(O)nc1C [L-697,661]	reduced susceptibility
